Assay results from patent US7687643B2, “Process for preparing 3,3-dimethylindolines” (Amgen Inc., priority 2001, dated 2010).

Each compound was assayed on Human Umbilical Vein Endothelial cells (VEGF-stimulated) (assay: HUVEC proliferation assay, VEGF-stimulated). Conditions: VEGF 50 ng/mL, 72 h, CyQuant, read-out: inhibited VEGF-stimulated HUVEC proliferation at a level.
Format: cell-based
Procedure: Human Umbilical Vein Endothelial cells are purchased from Clonetics, Inc., as cryopreserved cells harvested from a pool of donors. These cells, at passage 1, are thawed and expanded in EBM-2 complete medium, until passage 2 or 3. The cells are trypsinized, washed in DMEM+10% FBS+antibiotics, and spun at 1000 rpm for 10 min. Prior to centrifugation of the cells, a small amount is collected for a cell count. After centrifugation, the medium is discarded, and the cells are resuspended in the appropriate volume of DMEM+10% FBS+antibiotics to achieve a concentration of 3×10^5 cells/mL. Another cell count is performed to confirm the cell concentration. The cells are diluted to 3×10^4 cells/mL in DMEM+10% FBS+antibiotics, and 100 μL of cells are added to a 96-well plate. The cells are incubated at 37° C. for 22 h.
Prior to the completion of the incubation period, compound dilutions are prepared. Five-point, five-fold serial dilutions are prepared in DMSO, at concentrations 400-fold greater than the final concentrations desired. 2.5 μL of each compound dilution are diluted further in a total of 1 mL DMEM+10% FBS+antibiotics (400× dilution). Medium containing 0.25% DMSO is also prepared for the 0 μM compound sample. At the 22-hour timepoint, the medium is removed from the cells, and 100 μL of each compound dilution is added. The cells are incubated at 37° C. for 2-3 h.
During the compound pre-incubation period, the growth factors are diluted to the appropriate concentrations. Solutions of DMEM+10% FBS+antibiotics, containing either VEGF or bFGF at the following concentrations: 50, 10, 2, 0.4, 0.08, and 0 ng/mL are prepared. For the compound-treated cells, solutions of VEGF at 550 ng/mL or bFGF at 220 ng/mL for 50 ng/mL or 20 ng/mL final concentrations, respectively, are prepared since 10 μL of each will be added to the cells (110 μL final volume). At the appropriate time after adding the compounds, the growth factors are added. VEGF is added to one set of plates, while bFGF is added to another set of plates. For the growth factor control curves, the media on wells B4-G6 of plates 1 and 2 are replaced with media containing VEGF or bFGF at the varying concentrations (50-0 ng/mL). The cells are incubated at 37° C. for an additional 72 h.
At the completion of the 72 h incubation period, the medium is removed, and the cells are washed twice with PBS. After the second wash with PBS, the plates are tapped gently to remove excess PBS, and the cells are placed at −70° C. for at least 30 min. The cells are thawed and analyzed using the CyQuant fluorescent dye (Molecular Probes C-7026), following the manufacturer's recommendations. The plates are read on a Victor/Wallac 1420 workstation at 485 nm/530 nm (excitation/emission). Raw data are collected and analyzed using a 4-parameter fit equation in XLFit. IC50 values are then determined.

SMILES	IC50
O=C(Nc1cc(NC(=O)c2cccnc2NCc2ccncc2)cc(C(F)(F)F)c1)O[C@H]1CCOC1 [Example 1088, (3S)-tetrahydro-3-furanyl 3-(((2-((4-pyridinylmethyl)amino)-3-pyridinyl)carbonyl)amino)-5-(trifluoromethyl)phenylcarbamate]	< 50 nM
CN(C)CC(=O)N1CC(C)(C)c2ccc(NC(=O)c3cccnc3NCc3ccnc4ccccc34)cc21 [Example 1030, N-(1-(N,N-Dimethylglycyl)-3,3-dimethyl-2,3-dihydro-1H-indol-6-yl)-2-((4-quinolinylmethyl)amino)-3-pyridinecarboxamide]	< 50 nM
O=C(Nc1ccc(C(F)(F)C(F)(F)F)c(OC[C@H](O)CN2CCCC2)c1)c1cccnc1NCc1ccncc1 [Example 951, (R) N-[3-(2-Hydroxy-3-pyrrolidin-1-yl-propoxy)-4-pentafluoroethyl-phenyl]-2-[(pyridin-4-ylmethyl)-amino]-nicotinamide]	< 50 nM
CN1CCC[C@@H]1COc1cc(NC(=O)c2cccnc2NCc2ccncc2)cc(C(F)(F)F)c1 [Example 917, (R) N-[3-(1-Methyl-pyrrolidin-2-ylmethoxy)-5-trifluoromethyl-phenyl]-2-[(pyridin-4-ylmethyl)-amino]-nicotinamide]	< 50 nM
CC(C)(C)c1ccc(NC(=O)c2cccnc2NCc2ccnc(Cl)c2)cc1 [Example 138, N-[4-(tert-Butyl)phenyl](2-{[(2-chloro(4-pyridyl))methyl]amino}(3-pyridyl))carboxamide]	< 50 nM
CNc1nccc(CNc2ncccc2C(=O)Nc2ccc(C(C)(C)C3CCN(C)CC3)cc2)n1 [Example 1043, 2-(((2-(methylamino)-4-pyrimidinyl)methyl)amino)-N-(4-(1-methyl-1-(1-methyl-4-piperidinyl)ethyl)phenyl)-3-pyridinecarboxamide]	< 50 nM
CC(CNc1cc(CNc2ncccc2C(=O)Nc2ccc3c(c2)NCC3(C)C)ccn1)N1CCOCC1 (stereo not shown) [Example 1008, N-(3,3-dimethyl-2,3-dihydro-1H-indol-6-yl)-2-{[2-(2-morpholin-4-yl-propylamino)-pyridin-4-ylmethyl]-amino}-nicotinamide]	< 50 nM
CC1(C)CN(S(C)(=O)=O)c2cc(NC(=O)c3cccnc3NCc3ccnc(N)c3)ccc21 [Example 1059, 2-(((2-amino-4-pyridinyl)methyl)amino)-N-(3,3-dimethyl-1-(methylsulfonyl)-2,3-dihydro-1H-indol-6-yl)-3-pyridinecarboxamide]	< 50 nM
CC1(C)CCNc2cc(NC(=O)c3cccnc3NCc3ccnc(N)c3)ccc21 [Example 1111, 2-[(2-Amino-pyridin-4-ylmethyl)-amino]-N-(4,4-dimethyl-1,2,3,4-tetrahydro-quinolin-7-yl)-nicotinamide]	< 50 nM
CC(C)c1ccc(NC(=O)c2ccc(F)nc2NCc2ccncc2)cc1 [Example 155, {6-Fluoro-2-[(4-pyridylmethyl)amino](3-pyridyl)}-N-[4-(isopropyl)phenyl]carboxamide]	< 50 nM
CN1CCC[C@H]1COc1cc(NC(=O)c2cccnc2NCc2ccncn2)cc(C(F)(F)F)c1 [Example 1025, N-(3-((((2S)-1-Methyl-2-pyrrolidinyl)methyl)oxy)-5-(trifluoromethyl)phenyl)-2-((4-pyrimidinylmethyl)amino)-3-pyridinecarboxamide]	< 50 nM
O=C(Nc1ccc2c(c1)N(CCN1CCCCC1)CC2)c1cccnc1NCc1ccncc1 [Example 130, N-[1-(2-Piperidylethyl)indolin-6-yl]{2-[(4-pyridylmethyl)amino](3-pyridyl)}carboxamide]	< 50 nM
CC(C)(C)c1ccc(NC(=O)c2ccc(F)nc2NCc2ccncc2)cc1 [Example 154, N-[4-(tert-Butyl)phenyl]{6-fluoro-2-[(4-pyridylmethyl)amino](3-pyridyl)}carboxamide]	< 50 nM
